Assays:
5-LO [1] = experiment: Test b) in vitro heparinised human blood challenged with A23187, LTB4 radioimmunoassay (5-LO); assay type: cell-based; details: A23187 challenge
Procedure: b) An in vitro assay system involving incubating a test compound with heparinised human blood, prior to challenge with the calcium ionophore A23187 and then indirectly measuring the inhibitory effects on 5-LO by assaying the amount of LTB4 using the specific radioimmunoassay described by Carey and Forder (F. Carey and R. A. Forder, Brit. J. Pharmacol. 1985, 84, 34P) which involves the use of a protein-LTB4 conjugate produced using the procedure of Young et alia (Prostaglandins, 1983, 26(4), 605-613). The effects of a test compound on the enzyme cyclooxygenase (which is involved in the alternative metabolic pathway for arachidonic acid and gives rise to prostaglandins, thromboxanes and related metabolites) may be measured at the same time using the specific radioimmunoassay for thromboxane B2 (TxB2) described by Carey and Forder (see above). This test provides an indication of the effects of a test compound against 5-LO and also cyclooxygenase in the presence of blood cells and proteins. It permits the selectivity of the inhibitory effect on 5-LO or cyclooxygenase to be assessed.

5-LO [2] = experiment: Test c) ex vivo assay: administration of test compound, blood collection, A23187 challenge, radioimmunoassay of LTB4; assay type: in vivo; details: oral
Procedure: c) An ex vivo assay system, which is a variation of test b) above, involving administration of a test compound (usually orally as the suspension produced when a solution of the test compound in dimethylsulphoxide is added to carboxymethylcellulose), blood collection, heparinisation, challenge with A23187 and radioimmunoassay of LTB4 and TxB2. This test provides an indication of the bioavailability of a test compound as an inhibitor of 5-LO or cyclooxygenase.

5-LO [3] = experiment: Test g) liberation of LTB4 induced by zymosan within an air pouch in male rats; assay type: in vivo; details: oral, rat zymosan air pouch, 3 hours
Procedure: g) An in vivo system involving measuring the effects of a test compound administered orally against the liberation of LTB4 induced by zymosan within an air pouch generated within the subcutaneous tissue of the back of male rats. The rats are anaesthetised and air pouches are formed by the injection of sterile air (20 ml). A further injection of air (10 ml) is similarly given after 3 days. At 6 days after the initial air injection the test compound is administered (usually orally as the suspension produced when a solution of the test compound in dimethylsulphoxide is added to hydroxypropylmethylcellulose), followed by the intrapouch injection of zymosan (1 ml of a 1% suspension in physiological saline). After 3 hours the rats are killed, the air pouches are lavaged with physiological saline, and the specific radioimmunoassay described above is used to assay LTB4 in the washings. This test provides an indication of inhibitory effects against 5-LO in an inflammatory milieu.

IC50 (5-LO [1]): 300 nM
SMILES: COC1(c2ccc3c(c2)OC(c2ccc4ccccc4c2)O3)CCOCC1 (stereo not drawn) [5-(4-methoxytetrahydropyran-4-yl)-2-(naphth-2-yl)benzo-1,3-dioxole]
ED50 (5-LO [2]): 5 mg/kg
ED50 (5-LO [3]): < 3 mg/kg

Source: patent US5126365A, “Bicyclic derivatives” (Imperial Chemical Industries PLC, priority 1989, dated 1992)
